Results: US5441941A, “1,2-dihydroellipticines with activity against CNS specific cancer” (The United States of America as represented by the …, priority 1993, dated 1995)

Legend:
DMS 114 = test: cells; settings: Homo sapiens
SK-OV-3 = test: NCI in vitro screen, SRB percent growth, Ovarian Cancer
HL-60 (TB) = test: NCI in vitro screen, SRB percent growth, Leukemia
M19-MEL = test: NCI in vitro screen, SRB percent growth, Melanoma
SK-MEL-28 = test: NCI in vitro screen, SRB percent growth, Melanoma
NCI-H23 = test: NCI in vitro screen, SRB percent growth, Non-Small Cell Lung Cancer
EKVX = test: cells; settings: Homo sapiens
SF-295 = test: NCI in vitro screen, SRB percent growth, CNS Cancer
U251 = test: as above
SK-MEL-2 = test: NCI in vitro screen, SRB percent growth, Melanoma
NCI-H460 = test: NCI in vitro screen, SRB percent growth, Non-Small Cell Lung Cancer
HT29 = test: NCI in vitro screen, SRB percent growth, Colon Cancer
OVCAR-3 = test: NCI in vitro screen, SRB percent growth, Ovarian Cancer
HCT-15 = test: NCI in vitro screen, SRB percent growth, Colon Cancer
RPMI-8226 = test: cells; settings: Homo sapiens
HOP-62 = test: NCI in vitro screen, SRB percent growth, Non-Small Cell Lung Cancer
TK-10 = test: NCI in vitro screen, SRB percent growth, Renal Cancer
[1] = Log10 Concentration -4.0, 100 µM
[2] = Log10 Concentration -7.0, 0.1 µM
[3] = RPMI-8226, read-out: Percent Growth

Compound: Cc1ccc2[nH]c3c(C)c4c(c(C)c3c2c1)CN(C)C=C4 [Formula XI]
- GI50 (DMS 114; DMS-114): 0.414 µM
- IC (TGI) (DMS 114; DMS-114, read-out: TGI): 2.12 µM
- Percent Growth (SK-OV-3; [1]): -58%
- Percent Growth (SK-OV-3; Log10 Concentration -5.0): -16%
- Percent Growth (SK-OV-3; Log10 Concentration -6.0, 1 µM): 36%
- Percent Growth (SK-OV-3; [2]): 59%
- Percent Growth (SK-OV-3; Log10 Concentration -8.0): 87%
- TGI (SK-OV-3; PG=0): 4.87 µM
- GI50 (SK-OV-3; PG=+50): 0.25 µM
- CC50 (SK-OV-3; read-out: LC-50, PG=-50): 63.3 µM
- Percent Growth (HL-60 (TB); [1]): -30%
- Percent Growth (HL-60 (TB); Log10 Concentration -5.0): 25%
- Percent Growth (HL-60 (TB); Log10 Concentration -6.0, 1 µM): 102%
- Percent Growth (HL-60 (TB); Log10 Concentration -8.0): 111%
- TGI (HL-60 (TB); PG=0): 28.7 µM
- GI50 (HL-60 (TB); PG=+50): 4.8 µM
- CC50 (HL-60 (TB); read-out: LC-50, PG=-50): > 100 µM
- Percent Growth (M19-MEL; [1]): -93%
- Percent Growth (M19-MEL; Log10 Concentration -5.0): -91%
- Percent Growth (M19-MEL; Log10 Concentration -6.0, 1 µM): 38%
- Percent Growth (M19-MEL; [2]): 93%
- Percent Growth (M19-MEL; Log10 Concentration -8.0): 94%
- TGI (M19-MEL; PG=0): 1.98 µM
- GI50 (M19-MEL; PG=+50): 0.605 µM
- CC50 (M19-MEL; read-out: LC-50, PG=-50): 4.83 µM
- Percent Growth (SK-MEL-28; [1]): -95%
- Percent Growth (SK-MEL-28; Log10 Concentration -5.0): -61%
- Percent Growth (SK-MEL-28; Log10 Concentration -6.0, 1 µM): 108%
- Percent Growth (SK-MEL-28; [2]): 115%
- Percent Growth (SK-MEL-28; Log10 Concentration -8.0): 114%
- TGI (SK-MEL-28; PG=0): 4.37 µM
- GI50 (SK-MEL-28; PG=+50): 2.21 µM
- CC50 (SK-MEL-28; read-out: LC-50, PG=-50): 8.62 µM
- Percent Growth (NCI-H23; [1]): -85%
- Percent Growth (NCI-H23; Log10 Concentration -5.0): -75%
- Percent Growth (NCI-H23; Log10 Concentration -6.0, 1 µM): 42%
- Percent Growth (NCI-H23; [2]): 97%
- Percent Growth (NCI-H23; Log10 Concentration -8.0): 95%
- TGI (NCI-H23; PG=0): 2.29 µM
- GI50 (NCI-H23; PG=+50): 0.668 µM
- CC50 (NCI-H23; read-out: LC-50, PG=-50): 6.15 µM
- GI50 (EKVX): 3.6 µM
- activity at 0.01 µM (EKVX; read-out: Percent Growth): 109%
- activity at 0.1 µM (EKVX; read-out: Percent Growth): 114%
- activity at 1 µM (EKVX; read-out: Percent Growth): 86%
- activity at 10 µM (EKVX; read-out: Percent Growth): 22%
- activity at 100 µM (EKVX; read-out: Percent Growth): -22%
- IC (TGI) (EKVX; read-out: TGI): 31.2 µM
- Percent Growth (SF-295; [1]): -91%
- Percent Growth (SF-295; Log10 Concentration -5.0): -31%
- Percent Growth (SF-295; Log10 Concentration -6.0, 1 µM): 23%
- Percent Growth (SF-295; [2]): 87%
- Percent Growth (SF-295; Log10 Concentration -8.0): 92%
- TGI (SF-295; PG=0): 2.68 µM
- GI50 (SF-295; PG=+50): 0.381 µM
- CC50 (SF-295; read-out: LC-50, PG=-50): 20.7 µM
- Percent Growth (U251; Log10 Concentration -5.0): -72%
- Percent Growth (U251; Log10 Concentration -6.0, 1 µM): 3%
- Percent Growth (U251; [2]): 89%
- Percent Growth (U251; Log10 Concentration -8.0): 99%
- TGI (U251; PG=0): 1.1 µM
- GI50 (U251; PG=+50): 0.286 µM
- CC50 (U251; read-out: LC-50, PG=-50): 5.12 µM
- Percent Growth (SK-MEL-2; [1]): -94%
- Percent Growth (SK-MEL-2; Log10 Concentration -5.0): -92%
- Percent Growth (SK-MEL-2; Log10 Concentration -6.0, 1 µM): 94%
- Percent Growth (SK-MEL-2; [2]): 103%
- Percent Growth (SK-MEL-2; Log10 Concentration -8.0): 98%
- TGI (SK-MEL-2; PG=0): 3.2 µM
- GI50 (SK-MEL-2; PG=+50): 1.72 µM
- CC50 (SK-MEL-2; read-out: LC-50, PG=-50): 5.96 µM
- Percent Growth (NCI-H460; [1]): -85%
- Percent Growth (NCI-H460; Log10 Concentration -5.0): 8%
- Percent Growth (NCI-H460; Log10 Concentration -6.0, 1 µM): 78%
- Percent Growth (NCI-H460; [2]): 91%
- Percent Growth (NCI-H460; Log10 Concentration -8.0): 99%
- TGI (NCI-H460; PG=0): 12.1 µM
- GI50 (NCI-H460; PG=+50): 2.51 µM
- CC50 (NCI-H460; read-out: LC-50, PG=-50): 42.1 µM
- Percent Growth (HT29; [1]): -93%
- Percent Growth (HT29; Log10 Concentration -5.0): 4%
- Percent Growth (HT29; Log10 Concentration -6.0, 1 µM): 82%
- Percent Growth (HT29; [2]): 95%
- Percent Growth (HT29; Log10 Concentration -8.0): 99%
- TGI (HT29; PG=0): 11.1 µM
- GI50 (HT29; PG=+50): 2.57 µM
- CC50 (HT29; read-out: LC-50, PG=-50): 36 µM
- Percent Growth (OVCAR-3; [1]): -91%
- Percent Growth (OVCAR-3; Log10 Concentration -5.0): 5%
- Percent Growth (OVCAR-3; Log10 Concentration -6.0, 1 µM): 76%
- Percent Growth (OVCAR-3; [2]): 94%
- Percent Growth (OVCAR-3; Log10 Concentration -8.0): 98%
- TGI (OVCAR-3; PG=0): 11.3 µM
- GI50 (OVCAR-3; PG=+50): 2.34 µM
- CC50 (OVCAR-3; read-out: LC-50, PG=-50): 37.6 µM
- Percent Growth (HCT-15; [1]): -87%
- Percent Growth (HCT-15; Log10 Concentration -5.0): 76%
- Percent Growth (HCT-15; Log10 Concentration -6.0, 1 µM): 95%
- Percent Growth (HCT-15; [2]): 102%
- Percent Growth (HCT-15; Log10 Concentration -8.0): 111%
- TGI (HCT-15; PG=0): 29.3 µM
- GI50 (HCT-15; PG=+50): 14.5 µM
- CC50 (HCT-15; read-out: LC-50, PG=-50): 59.6 µM
- GI50 (RPMI-8226; RPMI-8226): 6.81 µM
- CC50 (RPMI-8226; RPMI-8226, read-out: LC-50): > 100 µM
- activity at 0.01 µM (RPMI-8226; [3]): 109%
- activity at 0.1 µM (RPMI-8226; [3]): 106%
- activity at 1 µM (RPMI-8226; [3]): 103%
- activity at 10 µM (RPMI-8226; [3]): 39%
- activity at 100 µM (RPMI-8226; [3]): -27%
- IC (TGI) (RPMI-8226; RPMI-8226, read-out: TGI): 39.3 µM
- Percent Growth (HOP-62; [1]): -89%
- Percent Growth (HOP-62; Log10 Concentration -5.0): -39%
- Percent Growth (HOP-62; Log10 Concentration -6.0, 1 µM): 11%
- Percent Growth (HOP-62; [2]): 119%
- Percent Growth (HOP-62; Log10 Concentration -8.0): 121%
- TGI (HOP-62; PG=0): 1.64 µM
- GI50 (HOP-62; PG=+50): 0.433 µM
- CC50 (HOP-62; read-out: LC-50, PG=-50): 16.3 µM
- Percent Growth (TK-10; [1]): -93%
- Percent Growth (TK-10; Log10 Concentration -5.0): 49%
- Percent Growth (TK-10; Log10 Concentration -6.0, 1 µM): 90%
- Percent Growth (TK-10; [2]): 101%
- Percent Growth (TK-10; Log10 Concentration -8.0): 103%
- TGI (TK-10; PG=0): 22.1 µM
- GI50 (TK-10; PG=+50): 9.46 µM
- CC50 (TK-10; read-out: LC-50, PG=-50): 49.6 µM
